What follows are molecules tested on SARS-CoV-2 replicon. Conditions: read-out: SARS-CoV-2 Replicon (Huh-7cell) EC50.
Format: cell-based

**Q.** With `CCC(CC)COC(=O)[C@H](C)N[P@@](=O)(OCOC(=O)C(C)(C)C)OC[C@H]1O[C@@](C#N)(c2ccc3c(N)ncnn23)[C@H](OC(=O)C(C)C)[C@@H]1OC(=O)C(C)C` [Compound 11b, (2R,3R,4R,5R)-2-(4-aminopyrrolo[2,1-f][1,2,4]triazin-7-yl)-2-cyano-5-((((S)-(((S)-1-(2-ethylbutoxy)-1-oxopropan-2-yl)amino)((pivaloyloxy)methoxy)phosphoryl)oxy)methyl)tetrahydrofuran-3,4-diyl bis(2-methylpropionate)] as the molecule, how does the EC50 read?
**A.** Its EC50 is under 5 nM.

**Q.** `CCC(CC)COC(=O)[C@H](C)N[P@](=O)(OCOC(=O)C(C)(C)C)OC[C@H]1O[C@@](C#N)(c2ccc3c(N)ncnn23)[C@H](OC(=O)C(C)(C)C)[C@@H]1OC(=O)C(C)(C)C` [Compound 12a, (2R,3R,4R,5R)-2-(4-aminopyrrolo[2,1-f][1,2,4]triazin-7-yl)-2-cyano-5-((((R)-(((S)-1-(2-ethylbutoxy)-1-oxopropan-2-yl)amino)((pivaloyloxy)methoxy)phosphoryl)oxy)methyl)tetrahydrofuran-3,4-diyl bis(2,2-dimethylpropionate)] was tested. Which EC50 did it give?
**A.** The EC50 was 50 to 500 nM.

**Q.** `CCC(CC)COC(=O)[C@H](C)N[P@@](=O)(OCOC(=O)C(C)(C)C)OC[C@H]1O[C@@](C#N)(c2ccc3c(N)ncnn23)[C@H](OC(=O)C(C)(C)C)[C@@H]1OC(=O)C(C)(C)C` [Compound 12b, (2R,3R,4R,5R)-2-(4-aminopyrrolo[2,1-f][1,2,4]triazin-7-yl)-2-cyano-5-((((S)-(((S)-1-(2-ethylbutoxy)-1-oxopropan-2-yl)amino)((pivaloyloxy)methoxy)phosphoryl)oxy)methyl)tetrahydrofuran-3,4-diyl bis(2,2-dimethylpropionate)] was tested. Which EC50 did it give?
**A.** The EC50 was 50 to 500 nM.

**Q.** For `CC(C)OC(=O)OCO[P@@](=O)(N[C@@H](C)C(=O)OC1CCC1)OC[C@H]1O[C@@](C#N)(c2ccc3c(N)ncnn23)[C@H](OC(=O)C(C)C)[C@@H]1OC(=O)C(C)C` [Compound 13a, (2R,3R,4R,5R)-2-(4-aminopyrrolo[2,1-f][1,2,4]triazin-7-yl)-2-cyano-5-((((R)-(((S)-1-cyclobutoxy-1-oxopropan-2-yl)amino)(((isopropoxycarbonyl)oxy)methoxy)phosphoryl)oxy)methyl)tetrahydrofuran-3,4-diyl bis(2-methylpropionate)], which EC50 is on record?
**A.** The EC50 was under 5 nM.

**Q.** For `CC(C)OC(=O)OCO[P@](=O)(N[C@@H](C)C(=O)OC1CCC1)OC[C@H]1O[C@@](C#N)(c2ccc3c(N)ncnn23)[C@H](OC(=O)C(C)C)[C@@H]1OC(=O)C(C)C` [Compound 13b, (2R,3R,4R,5R)-2-(4-aminopyrrolo[2,1-f][1,2,4]triazin-7-yl)-2-cyano-5-((((S)-(((S)-1-cyclobutoxy-1-oxopropan-2-yl)amino)(((isopropoxycarbonyl)oxy)methoxy)phosphoryl)oxy)methyl)tetrahydrofuran-3,4-diyl bis(2-methylpropionate)], which EC50 is on record?
**A.** The EC50 was under 5 nM.

**Q.** With `CCC(CC)COC(=O)[C@H](C)N[P@](=O)(OCc1ccccc1C)OC[C@H]1O[C@@](C#N)(c2ccc3c(N)ncnn23)[C@H](OC(=O)C(C)C)[C@@H]1OC(=O)C(C)C` [Compound 16a, (2R,3R,4R,5R)-2-(4-aminopyrrolo[2,1-f][1,2,4]triazin-7-yl)-2-cyano-5-((((S)-(((S)-1-(2-ethylbutoxy)-1-oxopropan-2-yl)amino)((2-methylbenzyl)oxy)phosphoryl)oxy)methyl)tetrahydrofuran-3,4-diyl bis(2-methylpropionate)] as the molecule, how does the EC50 read?
**A.** Its EC50 is 50 to 500 nM.

**Q.** `CCC(CC)COC(=O)[C@H](C)N[P@@](=O)(OCc1ccccc1C)OC[C@H]1O[C@@](C#N)(c2ccc3c(N)ncnn23)[C@H](OC(=O)C(C)C)[C@@H]1OC(=O)C(C)C` [Compound 16b, (2R,3R,4R,5R)-2-(4-aminopyrrolo[2,1-f][1,2,4]triazin-7-yl)-2-cyano-5-((((R)-(((S)-1-(2-ethylbutoxy)-1-oxopropan-2-yl)amino)((2-methylbenzyl)oxy)phosphoryl)oxy)methyl)tetrahydrofuran-3,4-diyl bis(2-methylpropionate)] was tested. Which EC50 did it give?
**A.** Its EC50 is 50 to 500 nM.

**Q.** How did the EC50 turn out when `CC(=O)O[C@H]1[C@@H](OC(C)=O)[C@](C#N)(c2ccc3c(N)ncnn23)O[C@@H]1COP(=O)(OCOC(=O)OC(C)C)OCOC(=O)OC(C)C` [Compound 17, (2R,3R,4R,5R)-2-(4-aminopyrrolo[2,1-f][1,2,4]triazin-7-yl)-5-((((bis(((isopropoxycarbonyl)oxy)methoxy)phosphoryl))oxy)methyl)-2-cyanotetrahydrofuran-3,4-diyl diacetate] was run?
**A.** Its EC50 is under 5 nM.

**Q.** Which EC50 does the source give for `CCC(=O)O[C@H]1[C@@H](OC(=O)CC)[C@](C#N)(c2ccc3c(N)ncnn23)O[C@@H]1COP(=O)(OCOC(=O)OC(C)C)OCOC(=O)OC(C)C` [Compound 18, (2R,3R,4R,5R)-2-(4-aminopyrrolo[2,1-f][1,2,4]triazin-7-yl)-5-((((bis(((isopropoxycarbonyl)oxy)methoxy))phosphoryl)oxy)methyl)-2-cyanotetrahydrofuran-3,4-diyl dipropionate] here?
**A.** The EC50 was under 5 nM.

**Q.** How did the EC50 turn out when `CC(C)OC(=O)OCOP(=O)(OCOC(=O)OC(C)C)OC[C@H]1O[C@@](C#N)(c2ccc3c(N)ncnn23)[C@H](OC(=O)C(C)C)[C@@H]1OC(=O)C(C)C` [Compound 19, (2R,3R,4R,5R)-2-(4-aminopyrrolo[2,1-f][1,2,4]triazin-7-yl)-5-((((bis(((isopropoxycarbonyl)oxy)methoxy))phosphoryl)oxy)methyl)-2-cyanotetrahydrofuran-3,4-diyl bis(2-methylpropionate)] was run?
**A.** The EC50 was under 5 nM.

**Q.** `CC(C)OC(=O)OCOP(=O)(OCOC(=O)OC(C)C)OC[C@H]1O[C@@](C#N)(c2ccc3c(N)ncnn23)[C@H](OC(=O)C(C)(C)C)[C@@H]1OC(=O)C(C)(C)C` [Compound 20, (2R,3R,4R,5R)-2-(4-aminopyrrolo[2,1-f][1,2,4]triazin-7-yl)-5-((((bis(((isopropoxycarbonyl)oxy)methoxy))phosphoryl)oxy)methyl)-2-cyanotetrahydrofuran-3,4-diyl bis(2,2-dimethylpropionate)] was tested. Which EC50 did it give?
**A.** The EC50 was 10 to 50 nM.

**Q.** Which EC50 does the source give for `[2H]c1cc([C@]2(C#N)O[C@H](COP(=O)(OCOC(=O)OC(C)C)OCOC(=O)OC(C)C)[C@@H](OC(=O)C(C)C)[C@H]2OC(=O)C(C)C)n2ncnc(N)c12` [Compound 21, (2R,3R,4R,5R)-2-(4-amino-5-deuteriopyrrolo[2,1-f][1,2,4]triazin-7-yl)-5-((((bis(((isopropoxycarbonyl)oxy)methoxy))phosphoryl)oxy)methyl)-2-cyanotetrahydrofuran-3,4-diyl bis(2-methylpropionate)] here?
**A.** Its EC50 is under 5 nM.

**Q.** Which EC50 does the source give for `CC(=O)O[C@H]1[C@@H](OC(C)=O)[C@](C#N)(c2ccc3c(N)ncnn23)O[C@@H]1CO[P@](=O)(OCOC(=O)OC(C)C)Oc1ccc(C(C)(C)C)cc1` [Compound 22a, (2R,3R,4R,5R)-2-(4-aminopyrrolo[2,1-f][1,2,4]triazin-7-yl)-5-((((S)-(4-tert-butylphenoxy)(((isopropoxycarbonyl)oxy)methoxy)phosphoryl)oxy)methyl)-2-cyanotetrahydrofuran-3,4-diyl diacetate] here?
**A.** Its EC50 is under 5 nM.

**Q.** With `CC(=O)O[C@H]1[C@@H](OC(C)=O)[C@](C#N)(c2ccc3c(N)ncnn23)O[C@@H]1CO[P@@](=O)(OCOC(=O)OC(C)C)Oc1ccc(C(C)(C)C)cc1` [Compound 22b, ((2R,3R,4R,5R)-2-(4-aminopyrrolo[2,1-f][1,2,4]triazin-7-yl)-5-((((R)-(4-tert-butylphenoxy)(((isopropoxycarbonyl)oxy)methoxy)phosphoryl)oxy)methyl)-2-cyanotetrahydrofuran-3,4-diyl diacetate] as the molecule, how does the EC50 read?
**A.** The EC50 was 5 to 10 nM.

**Q.** For `CCC(=O)O[C@H]1[C@@H](OC(=O)CC)[C@](C#N)(c2ccc3c(N)ncnn23)O[C@@H]1CO[P@](=O)(OCOC(=O)OC(C)C)Oc1ccc(C(C)(C)C)cc1` [Compound 23a, (2R,3R,4R,5R)-2-(4-aminopyrrolo[2,1-f][1,2,4]triazin-7-yl)-5-((((S)-(4-tert-butylphenoxy)(((isopropoxycarbonyl)oxy)methoxy)phosphoryl)oxy)methyl)-2-cyanotetrahydrofuran-3,4-diyl dipropionate], which EC50 is on record?
**A.** Its EC50 is under 5 nM.

**Q.** How did the EC50 turn out when `CCC(=O)O[C@H]1[C@@H](OC(=O)CC)[C@](C#N)(c2ccc3c(N)ncnn23)O[C@@H]1CO[P@@](=O)(OCOC(=O)OC(C)C)Oc1ccc(C(C)(C)C)cc1` [Compound 23b, ((2R,3R,4R,5R)-2-(4-aminopyrrolo[2,1-f][1,2,4]triazin-7-yl)-5-((((R)-(4-tert-butylphenoxy)(((isopropoxycarbonyl)oxy)methoxy)phosphoryl)oxy)methyl)-2-cyanotetrahydrofuran-3,4-diyl dipropionate] was run?
**A.** Its EC50 is 5 to 10 nM.

**Q.** Which EC50 does the source give for `CC(C)OC(=O)OCO[P@@](=O)(OC[C@H]1O[C@@](C#N)(c2ccc3c(N)ncnn23)[C@H](OC(=O)C(C)C)[C@@H]1OC(=O)C(C)C)Oc1ccc(C(C)(C)C)cc1` [Compound 24a, (2R,3R,4R,5R)-2-(4-aminopyrrolo[2,1-f][1,2,4]triazin-7-yl)-5-((((S)-(4-tert-butylphenoxy)(((isopropoxycarbonyl)oxy)methoxy)phosphoryl)oxy)methyl)-2-cyanotetrahydrofuran-3,4-diyl bis(2-methylpropionate)] here?
**A.** Its EC50 is under 5 nM.

**Q.** `CC(C)OC(=O)OCO[P@](=O)(OC[C@H]1O[C@@](C#N)(c2ccc3c(N)ncnn23)[C@H](OC(=O)C(C)C)[C@@H]1OC(=O)C(C)C)Oc1ccc(C(C)(C)C)cc1` [Compound 24b] was tested. Which EC50 did it give?
**A.** Its EC50 is 10 to 50 nM.

**Q.** Which EC50 does the source give for `CC(C)C(=O)OCO[P@@](=O)(OC[C@H]1O[C@@](C#N)(c2ccc3c(N)ncnn23)[C@H](OC(=O)C(C)C)[C@@H]1OC(=O)C(C)C)Oc1ccc(C(C)(C)C)cc1` [Compound 26a, (2R,3R,4R,5R)-2-(4-aminopyrrolo[2,1-f][1,2,4]triazin-7-yl)-5-((((S)-(4-tert-butylphenoxy)((isobutyryloxy)methoxy)phosphoryl)oxy)methyl)-2-cyanotetrahydrofuran-3,4-diyl bis(2-methylpropionate)] here?
**A.** Its EC50 is 5 to 10 nM.

**Q.** `CC(C)C(=O)O[C@H]1[C@@H](OC(=O)C(C)C)[C@](C#N)(c2ccc3c(N)ncnn23)O[C@@H]1COP(=O)(OCOC(=O)C(C)(C)C)OCOC(=O)C(C)(C)C` [Compound 29, (2R,3R,4R,5R)-2-(4-aminopyrrolo[2,1-f][1,2,4]triazin-7-yl)-5-((((bis(((tert-butylcarbonyl)oxy)methoxy))phosphoryl)oxy)methyl)-2-cyanotetrahydrofuran-3,4-diyl bis(2-methylpropionate)] was tested. Which EC50 did it give?
**A.** The EC50 was 10 to 50 nM.
